Source: patent US12371454B2, “Cyclic peptide compound having Kras inhibitory action” (priority 2019, dated 2025)
Positions of bridges follow the written chain, without caps; N, C: chain ends. Non-standard residues stand in square brackets, D forms with d. Residues, ends and D or L forms follow the SMILES beside them. *: point of attachment. hPhe(3-Cl-4-CF3) = N[C@@H](CCc1ccc(C(F)(F)F)c(Cl)c1)C(=O)O; NMePhe(4-CF3) = CN[C@@H](Cc1ccc(C(F)(F)F)cc1)C(=O)O; NMePhe(3-CN) = CN[C@@H](Cc1cccc(C#N)c1)C(=O)O; NMePhe(4-Me) = CN[C@@H](Cc1ccc(C)cc1)C(=O)O; NMePhe(4-F) = CN[C@@H](Cc1ccc(F)cc1)C(=O)O; Abu(4,4,4-F3) = N[C@@H](CC(F)(F)F)C(=O)O; NMeGly(cPent) = CN[C@H](C(=O)O)C1CCCC1; NMe3Pal = CN[C@@H](Cc1cccnc1)C(=O)O; NMeCha = CN[C@@H](CC1CCCCC1)C(=O)O; Azetidine(3,3-F2) = FC1(F)CN(*)C1; NMeI = CC[C@H](C)[C@H](NC)C(=O)O; NMeD = CN[C@@H](CC(=O)O)C(=O)O; NMeL = CN[C@@H](CC(C)C)C(=O)O; NMePra = C#CC[C@H](NC)C(=O)O; NMeV = CN[C@H](C(=O)O)C(C)C; d(β3hA) = C[C@@H](N)CC(=O)O; NMeA = CN[C@@H](C)C(=O)O; Piperidide = C1CCN(*)CC1; dNMeA = CN[C@H](C)C(=O)O; Ac5c = NC1(C(=O)O)CCCC1; Aze = O=C(O)[C@@H]1CCN1; Sar = CNCC(=O)O

The compounds below were run against T1, Kras and SOS1 (biotin-tagged human Kras loaded with GDP, His-tagged human SOS1) (Homo sapiens, UniProt P01116, G12D) (assay: Protein-protein interaction inhibition between Kras and SOS1 (KrasGl2D-SOS PPI) using AlphaScreen). Conditions: AlphaScreen; biotin-tagged human Kras loaded with GDP, His-tagged human SOS1; read-out: KRAS G12D-SOS PPI IC50.
T1 construct: made in house; host or cells: E. coli (stated for Kras only)
T1 sequence (P01116 1-188 isoform P01116-2 G12D): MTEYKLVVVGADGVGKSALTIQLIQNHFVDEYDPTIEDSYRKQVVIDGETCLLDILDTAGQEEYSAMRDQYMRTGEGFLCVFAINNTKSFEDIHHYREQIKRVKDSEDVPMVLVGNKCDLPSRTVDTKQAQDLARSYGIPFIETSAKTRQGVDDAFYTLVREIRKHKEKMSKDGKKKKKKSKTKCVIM
Assay type: binding
Outline: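 Donor beads (nickel) hold His-SOS1; acceptor beads (streptavidin) hold biotin-Kras bound to GDP. Signal measured at 520-620 nm following 680 nm excitation.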

SMILES | IC50 [nM]
CC[C@H](C)[C@@H]1NC(=O)[C@H](CC(C)C)N(C)C(=O)C[C@@H](C(=O)N(C)C)N(C)C(=O)[C@H]([C@@H](C)CC)N(C)C(=O)C2(CCCC2)NC(=O)[C@H](Cc2cccc(C#N)c2)N(C)C(=O)[C@H](CCc2ccc(C(F)(F)F)c(Cl)c2)NC(=O)CN(C)C(=O)[C@H](Cc2ccc(C)cc2)N(C)C(=O)[C@@H]2CCN2C(=O)[C@H](C)N(C)C1=O [Compound 2002] ([NMeL]I[NMeA][Aze][NMePhe(4-Me)][Sar][hPhe(3-Cl-4-CF3)][NMePhe(3-CN)][Ac5c][NMeI][NMeD]-NMe2; lactam N-11) | 3
CC[C@H](C)[C@@H]1NC(=O)[C@H](C)N(C)C(=O)C[C@@H](C(=O)N2CCCCC2)N(C)C(=O)[C@H](C(C)C)N(C)C(=O)C2(CCCC2)NC(=O)[C@@H]2CCCN2C(=O)[C@H](CCc2ccc(C(F)(F)F)c(Cl)c2)NC(=O)[C@@H](C)N(C)C(=O)[C@H](CC2CCCCC2)N(C)C(=O)CN(C)C(=O)CN(C)C1=O [Compound 380] ([NMeA]I[Sar][Sar][NMeCha][dNMeA][hPhe(3-Cl-4-CF3)]P[Ac5c][NMeV][NMeD]-Piperidide; lactam N-11) | 5.6
CC[C@H](C)[C@@H]1NC(=O)[C@H](CC(C)C)N(C)C(=O)C[C@@H](C(=O)N(C)C)N(C)C(=O)[C@H]([C@@H](C)CC)N(C)C(=O)[C@H](C)NC(=O)[C@H](Cc2cccnc2)N(C)C(=O)[C@H](CCc2ccc(C(F)(F)F)c(Cl)c2)NC(=O)CN(C)C(=O)[C@H](Cc2ccc(C)cc2)N(C)C(=O)[C@@H]2CCN2C(=O)[C@H](C)N(C)C1=O [Compound 557] ([NMeL]I[NMeA][Aze][NMePhe(4-Me)][Sar][hPhe(3-Cl-4-CF3)][NMe3Pal]A[NMeI][NMeD]-NMe2; lactam N-11) | 4.4
C#CC[C@H]1C(=O)N(C)[C@H](C(=O)N2CCCCC2)CC(=O)N(C)[C@@H](CC(C)C)C(=O)N[C@@H]([C@@H](C)CC)C(=O)N(C)CC(=O)N(C)CC(=O)N(C)[C@@H](CC2CCCCC2)C(=O)N(C)CC(=O)N[C@@H](CCc2ccc(C(F)(F)F)c(Cl)c2)C(=O)N2CCC[C@H]2C(=O)NC2(CCCC2)C(=O)N1C [Compound 284] ([NMeL]I[Sar][Sar][NMeCha][Sar][hPhe(3-Cl-4-CF3)]P[Ac5c][NMePra][NMeD]-Piperidide; lactam N-11) | 71
CC[C@H](C)[C@@H]1NC(=O)[C@H](C)N(C)C(=O)C[C@@H](C)NC(=O)[C@H](C(C)C)N(C)C(=O)C2(CCCC2)NC(=O)[C@@H]2CCCN2C(=O)[C@H](CCc2ccc(C(F)(F)F)c(Cl)c2)NC(=O)[C@H]2CCCN2C(=O)[C@H](Cc2ccc(F)cc2)N(C)C(=O)[C@@H]2CCCN2C(=O)CN(C)C1=O [Compound 1667] (cyclo([Ac5c][NMeV][d(β3hA)][NMeA]I[Sar]P[NMePhe(4-F)][dP][hPhe(3-Cl-4-CF3)]P)) | 13
CC[C@H](C)[C@@H]1NC(=O)[C@H](C)N(C)C(=O)C[C@@H](C)NC(=O)[C@H](C2CCCC2)N(C)C(=O)C2(CCCC2)NC(=O)[C@@H]2CCCN2C(=O)[C@H](CCc2ccc(C(F)(F)F)c(Cl)c2)NC(=O)[C@@H](C)N(C)C(=O)[C@H](C(C)C)N(C)C(=O)CN(C)C(=O)CN(C)C1=O [Compound 109] (cyclo([Ac5c][NMeGly(cPent)][d(β3hA)][NMeA]I[Sar][Sar][NMeV][dNMeA][hPhe(3-Cl-4-CF3)]P)) | 40
CC[C@H](C)[C@@H]1NC(=O)[C@H](C)N(C)C(=O)C[C@@H](C)NC(=O)[C@H](C2CCCC2)N(C)C(=O)C2(CCCC2)NC(=O)[C@@H]2CCCN2C(=O)[C@H](CCc2ccc(C(F)(F)F)c(Cl)c2)NC(=O)[C@@H](C)N(C)C(=O)[C@H](Cc2ccc(C(F)(F)F)cc2)N(C)C(=O)CN(C)C(=O)CN(C)C1=O [Compound 1520] (cyclo([Ac5c][NMeGly(cPent)][d(β3hA)][NMeA]I[Sar][Sar][NMePhe(4-CF3)][dNMeA][hPhe(3-Cl-4-CF3)]P)) | 59
CC[C@H](C)[C@@H]1NC(=O)[C@H](CC(C)C)N(C)C(=O)C[C@@H](C(=O)N(C)C)N(C)C(=O)[C@H](C2CCCC2)N(C)C(=O)[C@H](CC(F)(F)F)NC(=O)[C@H](CC(=O)N2CC(F)(F)C2)N(C)C(=O)[C@H](CCc2ccc(C(F)(F)F)c(Cl)c2)NC(=O)CN(C)C(=O)[C@H](CC2CCCCC2)N(C)C(=O)[C@@H]2CCN2C(=O)[C@H](C)N(C)C1=O [Compound 222] ([NMeL]I[NMeA][Aze][NMeCha][Sar][hPhe(3-Cl-4-CF3)][NMeD](Azetidine(3,3-F2))[Abu(4,4,4-F3)][NMeGly(cPent)][NMeD]-NMe2; lactam N-11) | 20
CC[C@H](C)[C@@H]1NC(=O)[C@H](C)N(C)C(=O)C[C@@H](C(=O)N2CCCCC2)N(C)C(=O)[C@H](C(C)C)N(C)C(=O)C2(CCCC2)NC(=O)[C@@H]2CCCN2C(=O)[C@H](CCc2ccc(C(F)(F)F)c(Cl)c2)NC(=O)[C@H]2CCCN2C(=O)[C@H](Cc2ccc(F)cc2)N(C)C(=O)[C@@H]2CCCN2C(=O)CN(C)C1=O [Compound 1725] ([NMeA]I[Sar]P[NMePhe(4-F)][dP][hPhe(3-Cl-4-CF3)]P[Ac5c][NMeV][NMeD]-Piperidide; lactam N-11) | 23
